Measured values reported in patent EP0955032A1, “COSMETIC” (Technoble Co., Ltd., priority 1996, dated 1997).
Values after ≈ are worked out from the molar mass of the structure shown.

Assays:
[1] = in vitro; assay type: cell-based; settings: rabbit, sirc-c cells
Method: Cultured rabbit cornea cells (SIRC-C) were inoculated to a 96-well microplate (Corning Ltd.) at the rate of 5000 cells/well, and pre-incubated with Eagle's MEM containing 5% (v/v) FBS for one day under 5% CO2 at 37° C. Then 0.2ml of Eagle's MEM containing 0.05% neutral red was added to the culture medium and incubation was continued for two days under the same conditions. Furthermore, 2,5-diacetoxy benzoic acid was added to the culture medium at the concentrations of 0.025% (w/v) (10.5mM), 0.05% (w/v) (21mM), 0.1% (w/v) (42mM) or 0.2% (w/v) (84mM) and incubated again for two days under 5% CO 2 at 37° C.
For comparison, cultures with 30ug/ml, 60ug/ml or 90ug/ml of sodium dodecyl sulfate instead of 2,5-diacetoxy benzoic acid and without any compound were prepared and served as the positive control and the blank respectively.
The cultures were tested by analyzing SIRC-C neutral red intake, which is one of the alternative methods of eye-irritation test, and the midpoint cytotoxicity (NR50) value was derived from the neutral red intake rate to evaluate the potential irritation effect.
It is believed that, since the neutral red intake decreases with the increase in the irritation of the compound to SIRC-C, the higher the NR50 concentration of the sample solution, the lower the irritation to the cells.

[2] = biological target: T1, intracellular tyrosinase (Mus musculus, UniProt P11344); assay: Experiments 2 and 5: inhibition of intracellular tyrosinase activity (Dopa value); assay type: cell-based; settings: for Dopa value: Fig. 1, 2.5mM or 5mM DABA, 2.5mM DAPECSAM, two days, compared with blank and with DHBA at the same concentration
T1 construct: endogenous in cells; host or cells: B16 mouse melanoma cells
T1 sequence (P11344 19-533): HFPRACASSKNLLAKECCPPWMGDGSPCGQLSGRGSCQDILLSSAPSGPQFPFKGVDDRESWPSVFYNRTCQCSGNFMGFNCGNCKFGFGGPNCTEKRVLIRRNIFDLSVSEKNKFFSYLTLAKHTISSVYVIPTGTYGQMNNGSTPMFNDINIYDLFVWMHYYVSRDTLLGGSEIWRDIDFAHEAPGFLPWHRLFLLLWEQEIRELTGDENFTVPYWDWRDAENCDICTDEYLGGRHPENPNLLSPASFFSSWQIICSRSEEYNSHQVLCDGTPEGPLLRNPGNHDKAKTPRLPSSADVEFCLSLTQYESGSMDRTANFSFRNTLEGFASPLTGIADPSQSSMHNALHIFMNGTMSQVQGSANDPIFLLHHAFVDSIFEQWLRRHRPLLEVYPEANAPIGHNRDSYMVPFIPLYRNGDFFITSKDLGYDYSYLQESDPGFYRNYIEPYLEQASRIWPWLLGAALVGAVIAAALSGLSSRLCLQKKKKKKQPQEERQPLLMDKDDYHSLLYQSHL
Method: (§1) Cultured B16 mouse melanoma cells were inoculated to a 96-well microplate (Corning Ltd.) at the rate of 8000 cells /well and pre-incubated in the Eagle's MEM containing 5% (v/v) FBS for one day under 5% CO2 at 37° C. After the pre-incubation, the culture medium was replaced with the Eagle's MEM containing 5% FBS, also containing 2.5mM or 5mM 2,5-diacetoxy benzoic acid or 2.5mM of 2-(2',5'-diacetoxy-benzoiloxy) benzoic acid, whereupon incubation was continued for two days under 5% CO2 at 37° C.
(§2) After the incubation, the medium was removed and a surfactant (Triton X-100) was mixed with the cells. Then 5mM of L-dopa or 0.2% of 3-(4,5-dimethylthiazol-2-yl)-2,5-diphenyltetrazorium bromide (MTT) was mixed for tyrosinase reaction at 37° C. Then the Dopa value and MTT test value were measured at the wavelength of 490nm and 570-630nm respectively using a microplate reader (Model 450, Bio Rad Ltd.).
(§3) For comparison, two series of culture with 2.5mM or 5mM of 2.5-dihydroxy benzoic acid instead of the compounds used in the present invention, as well as a culture without compound were prepared to serve as the positive controls and blank respectively.
(§4) It is believed that the higher the Dopa value, the higher the intracellular tyrosinase activity, while the lower the MTT test value, the lower the cultured B16 mouse melanoma cell activity.
(§5) The compound expressed by Formula A was used as an example of the 2,5-dihydroxy benzoic acid derivatives to evaluate its inhibitory effect on intracellular tyrosinase activity in accordance with the same protocol as followed in Experiment 2. [drawing 23]
(§6) However, the concentration was set to 2.5mM and the compound was dissolved in dimethyl sulfoxide before being applied to the culture medium.
(§7) The medium containing dimethyl sulfoxide was used for the blank culture. The results are shown in the graphs in Fig. 4 (Dopa levels) and Fig. 5 (MTT levels).

[3] = system: B16 mouse melanoma cells; assay: Experiments 2 and 5: MTT test value (cell activity); assay type: cell-based; settings: for MTT value: Fig. 2, 2.5mM or 5mM DABA, 2.5mM DAPECSAM, two days, compared with DHBA cultures and blank
Method: as §1, §2, §3, §4, §5, §6, §7

[4] = system: B16 mouse melanoma cells; assay: Experiment 1: gross observation of cell pellets after culture with sample; assay type: cell-based; settings: 5mM sample with 50mM c-AMP, three days; compared with blank culture
Method: (§8) Cultured B16 mouse melanoma cells (6x10^4 cells) were inoculated to Eagle's minimum essential medium (MEM) containing 5% (v/v) of fetal bovine serum (FBS) and pre-incubated for one day under 5% CO2 at 37° C before 4 days incubation with 0.1% D-glucosamine under the same conditions. Then the culture medium was replaced with one that contained 50mM of adenosine 3',5'-cyclic phosphate (c-AMP) and 5mM of 2,5-acetoxy benzoic acid as the sample, and incubated under 5% CO2 for three days at 37° C.
(§9) For comparison, a separate series of incubation was conducted under the same conditions using the same culture medium without 2,5-diacetoxy benzoic acid, and served as a blank.
After the incubation, the cells were isolated from the medium by centrifugation and made into a pellet.

[5] = system: T3-tyrosinase; assay: Experiment 1: SDS electrophoresis of intracellular tyrosinase isozymes (T3); assay type: cell-based, mouse; settings: 5mM sample, three days; compared with blank culture
Method: as §8, §9
(§10) Then the culture samples were analyzed by SDS electrophoresis for detection of B16 mouse melanoma intracellular tyrosinase isozymes. The conditions of the electrophoresis were: gel = polyacrylamide gel (T=7.5% w/v, C=3% w/v); buffer solution = 0.025 M tris- 0.192 M glycine buffer solution (pH = 8.3) containing 0.1% (v/v) sodium dodecyl sulfate (SDS); amount of application = 20uL per well [the mixing ratio of the buffer A (38ml of 0.125M tris-HCl buffer, 10ml of glycerin, 2g of SDS and 3mg of bromphenol blue)/culture sample = 1/1]. The concentration of the sample was adjusted to 1600ug/ml.

[6] = system: cyclooxygenase; assay: Experiment 3: inhibition of cyclooxygenase activity (oxygen consumption); assay type: biochemical; settings: Fig. 3; 1.00ml of 5mM or 10mM solution; compared with blank (purified water)
Method: A mixture solution was prepared using 3.57ml of 0.2M tris-HCl buffer solution containing 20mM of L-tryptophan, 0.03ml of 40mM hemoglobin solution, 0.20ml of 400unit/ml cyclooxygenase solution, and 1.00ml of 5mM or 10mM 2.5-diacetoxy benzoic acid solution.
For comparison, a mixture using 1.00ml of purified water instead of 1.00ml of 2,5-diacetoxy benzoic acid was prepared to serve as a blank.
The mixture was incubated for five minutes at 37° C, and then 0.20ml of 0.2M tris-HCl buffer solution containing 2mM of arachidonic acid was added to the mixture for cyclooxygenase reaction. Immediately after the reaction started, the amount of dissolved oxygen in the reaction solution was measured using a biological oxygen monitor (YSI Model 5300, Meridian Instruments Far East, Ltd.). On the basis of the measurement of the dissolved oxygen level, the change in oxygen consumption attendant on the progress of the reaction time was determined.
It is believed that the less the oxygen consumption, the more the cyclooxygenase was inhibited.

[7] = system: T1-tyrosinase; assay: Experiment 1: SDS electrophoresis of intracellular tyrosinase isozymes (T1); assay type: cell-based, mouse; settings: 5mM sample, three days; compared with blank culture
Method: as §8, §9, §10

CCCCCCCCCCCCOS(=O)(=O)[O-].[Na+] [SDS, sodium dodecyl sulfate, reference compound]
CC50 at 48 h [1]: ~60 µg/mL

COC(=O)c1ccccc1OC(=O)c1cc(OC(C)=O)ccc1OC(C)=O [Formula A]
intracellular tyrosinase activity (Dopa levels) ([2]; Experiment 5, Fig. 4, 2.5mM, dissolved in dimethyl sulfoxide, blank with dimethyl sulfoxide): significantly inhibited
cell activity (MTT levels) ([3]; Experiment 5, Fig. 5, 2.5mM, dissolved in dimethyl sulfoxide, blank with dimethyl sulfoxide): not the cell activity

CC(=O)Oc1ccc(OC(C)=O)c(C(=O)O)c1 [DABA, 2,5-diacetoxy benzoic acid]
gross observation of pellets [4]: significantly whitened
T3-tyrosinase band [5]: disappeared
Dopa value [2]: much lower than that of the blank
inhibitory effect on intracellular tyrosinase compared with kojic acid and albutin ([2]; within a concentration range that did not inhibit cell activity): the same or even higher
CC50 at 48 h [1]: 1000 to 2000 µg/mL (≈ 4.2 to 8.4 mM)
increase in oxygen consumption attendant upon progress of reaction time [6]: much lower
MTT value [3]: not much lower
band of T1-tyrosinase [7]: significantly reduced

COC(=O)c1ccccc1OC(=O)c1cc(OC(C)=O)ccc1OC(C)=O [DAPECSAM, 2-(2'5'-diacetoxy-benzoiloxy) benzoic acid methyl ester]
Dopa value [2]: much lower than that of the blank
MTT value [3]: not much lower
